“Also recorded” adds a separate entry of the source. Structures can show the parent of a compound that is named as a salt.
Experiments:
[1] = Evaluation of hygroscopicity: water content (K.F.) after exposure to humid conditions at 25° C.; assay type: physicochemical
Protocol: The sulphonic acid salts of sibutramine, prepared in Examples 1 to 5, and sibutramine hydrochloride monohydrate were exposed to humid conditions (10%, 75% and 90% RH) at 25° C. for a period of three days or one week. Then, the water content (K.F. water %) of the samples was measured.

[2] = Evaluation of stability: stringent 60° C. heat treatment, content by HPLC; assay type: physicochemical; parameters: content (HPLC) upon 60° C. heat treatment: reference not given here
Protocol: The sulphonic acid salts of sibutramine, prepared in Examples 1 to 5, and sibutramine hydrochloride monohydrate were exposed to a stringent 60° C. heat treatment.
HPLC was performed under the following conditions.
Wavelength of UV detection: 225 nm
Column: octadecyl silica gel, C18 (4.6×150 mm, 5 μm)
Mobile phase: an aqueous solution of ammonium phosphate monohydride (0.05 M) (adjusted to pH 6 with phosphoric acid): acetonitrile=35:65

[3] = Evaluation of light stability: exposure to fluorescence at 25° C., ICH light stability test chamber, content by HPLC; assay type: physicochemical; parameters: content (HPLC) in light stability test: reference not given here
Protocol: A light stability test was performed as follows. The sulphonic acid salts of sibutramine, prepared in Examples 1 to 5, and sibutramine hydrochloride monohydrate were exposed to fluorescence at 25° C. using a light stability test chamber suitable for the ICH guideline, for storage periods of 1, 2 and 4 weeks.

[4] = Evaluation of solubility in distilled water and aqueous solutions having various pH values; assay type: physicochemical
rat = settings: oral; cited from earlier work

Q: For `CC(C)CC(N(C)C)C1(c2ccc(Cl)cc2)CCC1` (stereo not drawn) [HCl monohydrate, sibutramine hydrochloride monohydrate, reference compound], which “water content (K.F. water %)” value ([1]; 10% relative humidity, 25° C., 1 week, hydrochloride monohydrate) is on record?
A: The value was 5.48%.

Q: What about the “water content (K.F. water %)” value ([1]; 10% relative humidity, 25° C., 3 days, hydrochloride monohydrate) of the same compound?
A: Its value is 5.51%.

Q: And the “water content (K.F. water %)” value ([1]; 75% relative humidity, 25° C., 1 week, hydrochloride monohydrate)?
A: The value was 5.50%.

Q: And the “water content (K.F. water %)” value ([1]; 75% relative humidity, 25° C., 3 days, hydrochloride monohydrate)?
A: Its value is 5.49%.

Q: What about the “water content (K.F. water %)” value ([1]; 90% relative humidity, 25° C., 1 week, hydrochloride monohydrate) of the same compound?
A: The value was 5.49%.

Q: What about the “water content (K.F. water %)” value ([1]; 90% relative humidity, 25° C., 3 days, hydrochloride monohydrate) of the same compound?
A: The value was 5.50%.

Q: And the “water content (K.F. water %)” value ([1]; Initial, hydrochloride monohydrate)?
A: Its value is 5.50%.

Q: What about the “content (HPLC) upon 60° C. heat treatment” value ([2]; 60° C., 1 wk, hydrochloride monohydrate) of the same compound?
A: Its value is 0.999.

Q: What about the “content (HPLC) upon 60° C. heat treatment” value ([2]; 60° C., 2 wks, hydrochloride monohydrate) of the same compound?
A: The value was 0.999.

Q: What about the “content (HPLC) upon 60° C. heat treatment” value ([2]; 60° C., 4 wks, hydrochloride monohydrate) of the same compound?
A: Its value is 0.999.

Q: What about the “change in content / impurities upon 60° C. heat treatment (in words)” value ([2]; 60° C., up to one month or longer) of the same compound?
A: Its value is “almost no change in content”.

Q: What about the “content (HPLC) upon 60° C. heat treatment” value ([2]; Initial) of the same compound?
A: Its value is 1.000.

Q: What about the “content (HPLC) in light stability test” value ([3]; Initial) of the same compound?
A: The value was 1.000.

Q: What about the “light stability (in words)” value ([3]; content changes analyzed by HPLC) of the same compound?
A: Its value is “good light stability”.

Q: What about the “content (HPLC) in light stability test” value ([3]; fluorescence, 25° C., 1 wk, hydrochloride monohydrate) of the same compound?
A: Its value is 0.999.

Q: What about the “content (HPLC) in light stability test” value ([3]; fluorescence, 25° C., 2 wks, hydrochloride monohydrate) of the same compound?
A: The value was 1.000.

Q: And the “content (HPLC) in light stability test” value ([3]; fluorescence, 25° C., 4 wks, hydrochloride monohydrate)?
A: Its value is 0.999.

Q: For `CC(C)CC(N(C)C)C1(c2ccc(Cl)cc2)CCC1` (stereo not drawn) [Tosylate, sibutramine tosylate], which “water content (K.F. water %)” value ([1]; 10% relative humidity, 25° C., 1 week, listed as Tosyalte) is on record?
A: Its value is 0.07%.

Q: What about the “water content (K.F. water %)” value ([1]; 10% relative humidity, 25° C., 3 days, listed as Tosyalte) of the same compound?
A: The value was 0.08%.

Q: And the “water content (K.F. water %)” value ([1]; 75% relative humidity, 25° C., 1 week, listed as Tosyalte)?
A: The value was 0.08%.

Q: What about the “water content (K.F. water %)” value ([1]; 75% relative humidity, 25° C., 3 days, listed as Tosyalte) of the same compound?
A: Its value is 0.05%.

Q: And the “water content (K.F. water %)” value ([1]; 90% relative humidity, 25° C., 1 week, listed as Tosyalte)?
A: Its value is 0.07%.

Q: And the “water content (K.F. water %)” value ([1]; 90% relative humidity, 25° C., 3 days, listed as Tosyalte)?
A: Its value is 0.05%.

Q: What about the “water content (K.F. water %)” value ([1]; Initial, listed as Tosyalte) of the same compound?
A: Its value is 0.10%.

Q: What about the “change in water content under humid conditions (in words)” value ([1]; relative humidities of 10%, 75% and 90%, up to one week or longer) of the same compound?
A: Its value is “almost no change in water content”.

Q: What about the solubility ([4]; DW (distilled water)) of the same compound?
A: The solubility was 24320 µg/mL.

Q: And the “solubility compared to sibutramine hydrochloride monohydrate (in words)” value ([4]; distilled water (DW) and buffer solutions at various pH values)?
A: The value was “slightly low solubility compared to sibutramine hydrochloride monohydrate; also recorded: slightly lower solubility than sibutramine hydrochloride monohydrate”.

Q: And the solubility ([4]; pH 1.2)?
A: Its solubility is 8360 µg/mL.

Q: And the solubility ([4]; pH 4.0)?
A: The solubility was 7560 µg/mL.

Q: And the solubility ([4]; pH 5.3)?
A: Its solubility is 5530 µg/mL.

Q: What about the solubility ([4]; pH 6.8) of the same compound?
A: Its solubility is 21920 µg/mL.

Q: And the solubility ([4]; pH 7.4)?
A: Its solubility is 7690 µg/mL.

Q: What about the “content (HPLC) upon 60° C. heat treatment” value ([2]; 60° C., 1 wk) of the same compound?
A: The value was 0.999.

Q: And the “content (HPLC) upon 60° C. heat treatment” value ([2]; 60° C., 2 wks)?
A: Its value is 1.000.

Q: What about the “content (HPLC) upon 60° C. heat treatment” value ([2]; 60° C., 4 wks) of the same compound?
A: Its value is 0.999.

Q: And the “content (HPLC) upon 60° C. heat treatment” value ([2]; Initial)?
A: Its value is 1.000.

Q: What about the “content (HPLC) in light stability test” value ([3]; Initial) of the same compound?
A: The value was 1.000.

Q: And the “content (HPLC) in light stability test” value ([3]; fluorescence, 25° C., 1 wk)?
A: Its value is 1.000.

Q: What about the “content (HPLC) in light stability test” value ([3]; fluorescence, 25° C., 2 wks) of the same compound?
A: The value was 0.999.

Q: And the “content (HPLC) in light stability test” value ([3]; fluorescence, 25° C., 4 wks)?
A: The value was 0.999.

Q: With `O=S(=O)(O)c1ccccc1` [benzenesulfonic acid] as the compound, how does the LD50 (rat) read?
A: The LD50 was 1,157 mg/kg.

Q: For `Cc1ccc(S(=O)(=O)O)cc1` [p-toluenesulfonic acid], which LD50 (rat) is on record?
A: The LD50 was 2,480 mg/kg.
